BigSolDB 2.1

COC(=O)C(C)(C)N=NC(C)(C)C(=O)OC
Details | solubility (mole fraction)
in THF, 253.85 K | 0.13
in THF, 258.55 K | 0.156
in THF, 260.95 K | 0.175
in THF, 262.85 K | 0.194
in THF, 265.15 K | 0.224
in THF, 268.85 K | 0.263
in THF, 273.65 K | 0.326
in THF, 275.95 K | 0.364
in THF, 278.45 K | 0.404
in THF, 280.65 K | 0.443
in THF, 283.15 K | 0.497
in THF, 285.65 K | 0.561
in THF, 288.05 K | 0.614
in THF, 290.55 K | 0.674
in THF, 293.15 K | 0.75
in acetone, 252.75 K | 0.0841
in acetone, 254.45 K | 0.0922
in acetone, 257.95 K | 0.112
in acetone, 261.25 K | 0.136
in acetone, 264.95 K | 0.171
in acetone, 267.65 K | 0.201
in acetone, 273.55 K | 0.276
in acetone, 275.85 K | 0.308
in acetone, 278.25 K | 0.352
in acetone, 280.55 K | 0.395
in acetone, 283.05 K | 0.454
in acetone, 285.65 K | 0.524
in acetone, 287.95 K | 0.591
in acetone, 290.45 K | 0.657
in acetone, 293.15 K | 0.734
in acetonitrile, 251.75 K | 0.0545
in acetonitrile, 255.15 K | 0.0705
in acetonitrile, 258.65 K | 0.091
in acetonitrile, 262.45 K | 0.113
in acetonitrile, 265.15 K | 0.137
in acetonitrile, 269.15 K | 0.18
in acetonitrile, 273.55 K | 0.238
in acetonitrile, 275.75 K | 0.278
in acetonitrile, 278.15 K | 0.323
in acetonitrile, 280.65 K | 0.369
in acetonitrile, 283.25 K | 0.432
in acetonitrile, 285.55 K | 0.494
in acetonitrile, 287.95 K | 0.557
in acetonitrile, 290.85 K | 0.638
in acetonitrile, 293.15 K | 0.702
in cyclohexane, 281.15 K | 0.147
in cyclohexane, 283.55 K | 0.233
in cyclohexane, 286.05 K | 0.362
in cyclohexane, 288.45 K | 0.471
in cyclohexane, 291.05 K | 0.601
in cyclohexane, 293.15 K | 0.677
in dichloromethane, 252.95 K | 0.268
in dichloromethane, 257.05 K | 0.281
in dichloromethane, 260.55 K | 0.296
in dichloromethane, 264.45 K | 0.321
in dichloromethane, 268.05 K | 0.352
in dichloromethane, 271.05 K | 0.385
in dichloromethane, 274.95 K | 0.413
in dichloromethane, 276.65 K | 0.451
in dichloromethane, 278.85 K | 0.493
in dichloromethane, 281.15 K | 0.513
in dichloromethane, 283.55 K | 0.552
in dichloromethane, 286.15 K | 0.592
in dichloromethane, 288.45 K | 0.627
in dichloromethane, 291.05 K | 0.67
in dichloromethane, 293.15 K | 0.73
in diethyl ether, 254.25 K | 0.0921
in diethyl ether, 257.95 K | 0.104
in diethyl ether, 260.55 K | 0.119
in diethyl ether, 262.45 K | 0.136
in diethyl ether, 266.75 K | 0.177
in diethyl ether, 268.15 K | 0.19
in diethyl ether, 273.55 K | 0.268
in diethyl ether, 275.65 K | 0.298
in diethyl ether, 278.05 K | 0.361
in diethyl ether, 280.55 K | 0.4
in diethyl ether, 282.85 K | 0.46
in diethyl ether, 285.55 K | 0.543
in diethyl ether, 287.95 K | 0.599
in diethyl ether, 290.45 K | 0.667
in diethyl ether, 293.15 K | 0.743
in ethanol, 252.85 K | 0.0094
in ethanol, 256.15 K | 0.011
in ethanol, 258.65 K | 0.0133
in ethanol, 261.85 K | 0.0165
in ethanol, 265.85 K | 0.0255
in ethanol, 268.55 K | 0.0344
in ethanol, 273.25 K | 0.0568
in ethanol, 275.85 K | 0.0726
in ethanol, 278.15 K | 0.094
in ethanol, 280.65 K | 0.123
in ethanol, 283.15 K | 0.17
in ethanol, 285.65 K | 0.238
in ethanol, 288.05 K | 0.329
in ethanol, 291.05 K | 0.481
in ethanol, 293.25 K | 0.625
in ethyl acetate, 252.15 K | 0.107
in ethyl acetate, 255.15 K | 0.114
in ethyl acetate, 257.85 K | 0.134
in ethyl acetate, 260.15 K | 0.146
in ethyl acetate, 263.65 K | 0.185
in ethyl acetate, 269.25 K | 0.246
in ethyl acetate, 273.65 K | 0.308
in ethyl acetate, 276.15 K | 0.342
in ethyl acetate, 278.45 K | 0.389
in ethyl acetate, 280.85 K | 0.433
in ethyl acetate, 283.25 K | 0.492
in ethyl acetate, 285.65 K | 0.558
in ethyl acetate, 288.05 K | 0.611
in ethyl acetate, 290.55 K | 0.668
in ethyl acetate, 293.25 K | 0.744
in isobutanol, 252.65 K | 0.0055
in isobutanol, 256.55 K | 0.0084
in isobutanol, 259.45 K | 0.0111
in isobutanol, 262.95 K | 0.013
in isobutanol, 265.65 K | 0.0155
in isobutanol, 269.35 K | 0.0205
in isobutanol, 273.55 K | 0.0388
in isobutanol, 275.95 K | 0.0587
in isobutanol, 278.15 K | 0.0813
in isobutanol, 280.65 K | 0.122
in isobutanol, 283.45 K | 0.194
in isobutanol, 285.75 K | 0.279
in isobutanol, 288.05 K | 0.355
in isobutanol, 290.95 K | 0.521
in isobutanol, 293.15 K | 0.643
in isopropanol, 252.05 K | 0.0065
in isopropanol, 256.25 K | 0.0081
in isopropanol, 258.95 K | 0.01
in isopropanol, 262.45 K | 0.0141
in isopropanol, 265.75 K | 0.0199
in isopropanol, 268.75 K | 0.0272
in isopropanol, 273.35 K | 0.0484
in isopropanol, 275.45 K | 0.0653
in isopropanol, 278.05 K | 0.0853
in isopropanol, 280.75 K | 0.137
in isopropanol, 283.15 K | 0.189
in isopropanol, 285.45 K | 0.26
in isopropanol, 287.95 K | 0.345
in isopropanol, 290.85 K | 0.5
in isopropanol, 293.15 K | 0.627
in methanol, 252.95 K | 0.0142
in methanol, 255.35 K | 0.0156
in methanol, 257.65 K | 0.0169
in methanol, 261.55 K | 0.0203
in methanol, 265.35 K | 0.0253
in methanol, 267.15 K | 0.0308
in methanol, 273.55 K | 0.0633
in methanol, 275.85 K | 0.0722
in methanol, 278.65 K | 0.0863
in methanol, 280.65 K | 0.122
in methanol, 283.05 K | 0.182
in methanol, 285.55 K | 0.248
in methanol, 288.15 K | 0.364
in methanol, 290.65 K | 0.482
in methanol, 293.15 K | 0.626
in n-butanol, 252.35 K | 0.0064
in n-butanol, 256.35 K | 0.0076
in n-butanol, 259.15 K | 0.0091
in n-butanol, 262.55 K | 0.0111
in n-butanol, 265.55 K | 0.0145
in n-butanol, 269.75 K | 0.0232
in n-butanol, 273.65 K | 0.0385
in n-butanol, 276.15 K | 0.0541
in n-butanol, 278.35 K | 0.0801
in n-butanol, 281.15 K | 0.123
in n-butanol, 283.55 K | 0.18
in n-butanol, 285.65 K | 0.251
in n-butanol, 288.15 K | 0.33
in n-butanol, 291.05 K | 0.486
in n-butanol, 293.15 K | 0.63
in n-propanol, 253.35 K | 0.0088
in n-propanol, 257.05 K | 0.0107
in n-propanol, 259.65 K | 0.0133
in n-propanol, 262.15 K | 0.0162
in n-propanol, 266.25 K | 0.0234
in n-propanol, 271.05 K | 0.0385
in n-propanol, 274.95 K | 0.0613
in n-propanol, 276.65 K | 0.0783
in n-propanol, 278.85 K | 0.098
in n-propanol, 281.15 K | 0.125
in n-propanol, 283.55 K | 0.173
in n-propanol, 286.15 K | 0.25
in n-propanol, 288.45 K | 0.352
in n-propanol, 291.05 K | 0.47
in n-propanol, 293.15 K | 0.611
in tetrachloromethane, 252.55 K | 0.109
in tetrachloromethane, 256.95 K | 0.125
in tetrachloromethane, 260.35 K | 0.144
in tetrachloromethane, 264.05 K | 0.182
in tetrachloromethane, 266.85 K | 0.214
in tetrachloromethane, 269.55 K | 0.242
in tetrachloromethane, 273.65 K | 0.314
in tetrachloromethane, 276.15 K | 0.349
in tetrachloromethane, 278.45 K | 0.393
in tetrachloromethane, 280.75 K | 0.445
in tetrachloromethane, 283.35 K | 0.506
in tetrachloromethane, 285.75 K | 0.564
in tetrachloromethane, 288.15 K | 0.632
in tetrachloromethane, 290.55 K | 0.696
in toluene, 253.45 K | 0.104
in toluene, 256.35 K | 0.119
in toluene, 259.55 K | 0.141
in toluene, 262.55 K | 0.161
in toluene, 264.85 K | 0.184
in toluene, 269.55 K | 0.237
in toluene, 273.65 K | 0.286
in toluene, 276.05 K | 0.326
in toluene, 278.25 K | 0.367
in toluene, 280.65 K | 0.41
in toluene, 283.15 K | 0.47
in toluene, 285.55 K | 0.545
in toluene, 288.05 K | 0.597
in toluene, 290.95 K | 0.67
in toluene, 293.15 K | 0.731
